This data set can be described thus: Evaluation of stability in liver microsome. The note with it: mouse liver microsome 0.25 mg/mL, test compound 1 μM, 37° C., 30 minutes. On the technique in general: Microsomes from liver hold many membrane-bound enzymes, among them those of drug oxidation.
Method: Solutions of the test compounds in DMSO/acetonitrile (the final concentration of each test compound was 1 μM, the final concentration of DMSO was 0.01%, and the final concentration of acetonitrile was 1%) were individually added to a liver microsome mixture solution (mouse liver microsome with a final concentration of 0.25 mg/mL, a potassium phosphate buffer with a final concentration of 100 mM, and magnesium chloride with a final concentration of 3 mM), and each mixture was pre-incubated at 37° C. for 5 minutes. […] After incubation at 37° C. for 30 minutes, a double amount of ethanol was added thereto to terminate the reaction, thereby obtaining post-reaction samples. A double amount of ethanol was added to each of the remaining mixture solutions, and a NADPH-generating system was further added thereto, thereby obtaining pre-reaction samples. The pre-reaction samples and post-reaction samples were centrifuged at 2000×g, and their supernatant was filtered through a glass filter. Each filtrate was then introduced into LC-MS/MS, and MS/MS peaks of the test compounds were detected. From the ratio of the post-reaction MS/MS peak to the pre-reaction MS/MS peak of the test compounds, the percentage of the remaining test compounds (remaining %) was calculated.
On to `COCc1ccc(NC(=O)c2c(OCC(C)(C)OC)n(C3(C)CC3)c3ncnc(N)c23)cc1` [Example 137, 4-amino-6-(2-methoxy-2-methylpropoxy)-N-(4-(methoxymethyl)phenyl)-7-(1-methylcyclopropyl)-7H-pyrrolo[2,3-d]pyrimidine-5-carboxamide], for which the “Remaining (%)” value came out at 53%.

`COCc1ccc(NC(=O)c2c(OCC3CCCC3)n(C3(C)CC3)c3ncnc(N)c23)cc1` [Example 140, 4-amino-6-(cyclopentylmethoxy)-N-(4-(methoxymethyl)phenyl)-7-(1-methylcyclopropyl)-7H-pyrrolo[2,3-d] pyrimidine-5-carboxamide]: the “Remaining (%)” value came to 52%.

On to `COCc1ccc(NC(=O)c2c(OCC3CCOCC3)n(C3(C)CC3)c3ncnc(N)c23)cc1` [Example 141, 4-amino-N-(4-(methoxymethyl)phenyl)-7-(1-methylcyclopropyl)-6-((tetrahydro-2H-pyran-4-yl)methoxy)-7H-pyrrolo[2,3-d]pyrimidine-5-carboxamide], for which the “Remaining (%)” value is reported as 68%.

Regarding `COCc1ccc(NC(=O)c2c(C#CCC3(O)CCOCC3)n(C3(C)CC3)c3ncnc(N)c23)cc1` [Example 143, 4-amino-6-(3-(4-hydroxytetrahydro-2H-pyran-4-yl)prop-1-yn-1-yl)-N-(4-(methoxymethyl)phenyl)-7-(1-methylcyclopropyl)-7H-pyrrolo[2,3-d]pyrimidine-5-carboxamide], the “Remaining (%)” value was 68%.

Consider `COCc1ccc(NC(=O)c2c(C#Cc3cnn(C(C)C)c3)n(C3(C)CC3)c3ncnc(N)c23)cc1` [Example 144, 4-amino-6-((1-isopropyl-1H-pyrazol-4-yl)ethynyl)-N-(4-(methoxymethyl)phenyl)-7-(1-methylcyclopropyl)-7H-pyrrolo[2,3-d]pyrimidine-5-carboxamide], for which the “Remaining (%)” value is recorded as 79%.

`COCc1ccc(NC(=O)c2c(-c3ccc(CO)cc3)n(C3(C)CC3)c3ncnc(N)c23)cc1` [Example 145, 4-amino-6-(4-(hydroxymethyl)phenyl)-N-(4-(methoxymethyl)phenyl)-7-(1-methylcyclopropyl)-7H-pyrrolo[2,3-d]pyrimidine-5-carboxamide]: the “Remaining (%)” value is reported as 72%.

With `COCc1ccc(NC(=O)c2c(-c3ccc(NC(C)=O)nc3)n(C3(C)CC3)c3ncnc(N)c23)cc1` [Example 147, 6-(6-acetamidopyridin-3-yl)-4-amino-N-(4-(methoxymethyl)phenyl)-7-(1-methylcyclopropyl)-7H-pyrrolo[2,3-d]pyrimidine-5-carboxamide], the “Remaining (%)” value was 68%.

In the case of `COCc1ccc(NC(=O)c2c(-c3ccc(O)cc3)n(C3(C)CC3)c3ncnc(N)c23)cc1` [Example 148, 4-amino-6-(4-hydroxyphenyl)-N-(4-(methoxymethyl)phenyl)-7-(1-methylcyclopropyl)-7H-pyrrolo[2,3-d]pyrimidine-5-carboxamide], the “Remaining (%)” value is 61%.

Regarding `C=C(C)c1c(C(=O)Nc2ccc(COC)cc2)c2c(N)ncnc2n1C1(C)CC1` [Example 149, 4-amino-N-(4-(methoxymethyl)phenyl)-7-(1-methylcyclopropyl)-6-(prop-1-en-2-yl)-7H-pyrrolo[2,3-d]pyrimidine-5-carboxamide], the “Remaining (%)” value is on record as 62%.

In the case of `COCc1ccc(NC(=O)c2c(-c3cnn(C)c3)n(C3(C)CC3)c3ncnc(N)c23)cc1` [Example 150, 4-amino-N-(4-(methoxymethyl)phenyl)-6-(1-methyl-1H-pyrazol-4-yl)-7-(1-methylcyclopropyl)-7H-pyrrolo[2,3-d]pyrimidine-5-carboxamide], the “Remaining (%)” value was 78%.

On to `COCc1ccc(NC(=O)c2c(C#CCC3CCOCC3)n(C3(C)CC3)c3ncnc(N)c23)cc1` [Example 152, 4-amino-N-(4-(methoxymethyl)phenyl)-7-(1-methylcyclopropyl)-6-(3-(tetrahydro-2H-pyran-4-yl)prop-1-yn-1-yl)-7H-pyrrolo[2,3-d]pyrimidine-5-carboxamide], for which the “Remaining (%)” value is 57%.

For `COCc1ccc(NC(=O)c2c(-c3ccccc3)n(C3(C)CC3)c3ncnc(N)c23)cc1` [Example 154, 4-amino-N-(4-(methoxymethyl)phenyl)-7-(1-methylcyclopropyl)-6-phenyl-7H-pyrrolo[2,3-d]pyrimidine-5-carboxamide], the “Remaining (%)” value is recorded as 50%.

Turning to `COCc1ccc(NC(=O)c2c(C#Cc3ccc(N)nc3)n(C3(C)CC3)c3ncnc(N)c23)cc1` [Example 155, 4-amino-6-((6-aminopyridin-3-yl)ethynyl)-N-(4-(methoxymethyl)phenyl)-7-(1-methylcyclopropyl)-7H-pyrrolo[2,3-d]pyrimidine-5-carboxamide], the “Remaining (%)” value is 64%.

As to `COCc1ccc(NC(=O)c2c(C#CCC3NC(=O)NC3=O)n(C3(C)CC3)c3ncnc(N)c23)cc1` (stereo not shown) [Example 156, 4-amino-6-(3-(2,5-dioxoimidazolidin-4-yl)prop-1-yn-1-yl)-N-(4-(methoxymethyl)phenyl)-7-(1-methylcyclopropyl)-7H-pyrrolo[2,3-d]pyrimidine-5-carboxamide], the “Remaining (%)” value amounted to 67%.

For the compound `CCC(O)CC#Cc1c(C(=O)Nc2ccc(COC)cc2)c2c(N)ncnc2n1C1(C)CC1` (stereo not shown) [Example 157, 4-amino-6-(4-hydroxyhex-1-yn-1-yl)-N-(4-(methoxymethyl)phenyl)-7-(1-methylcyclopropyl)-7H-pyrrolo[2,3-d]pyrimidine-5-carboxamide], the “Remaining (%)” value came out at 59%.

Consider `COCc1ccc(NC(=O)c2c(C#Cc3ccc4c(c3)NCCO4)n(C3(C)CC3)c3ncnc(N)c23)cc1` [Example 158, 4-amino-6-((3,4-dihydro-2H-benzo[b][1,4]oxazin-6-yl)ethynyl)-N-(4-(methoxymethyl)phenyl)-7-(1-methylcyclopropyl)-7H-pyrrolo[2,3-d]pyrimidine-5-carboxamide], for which the “Remaining (%)” value is on record as 85%.

Regarding `COCc1ccc(NC(=O)c2c(C#Cc3cnc4ccoc4c3)n(C3(C)CC3)c3ncnc(N)c23)cc1` [Example 159, 4-amino-6-(furo[3,2-b]pyridin-6-ylethynyl)-N-(4-(methoxymethyl)phenyl)-7-(1-methylcyclopropyl)-7H-pyrrolo[2,3-d]pyrimidine-5-carboxamide], the “Remaining (%)” value amounted to 78%.

For `COCc1ccc(NC(=O)c2c(C#Cc3ccc[nH]3)n(C3(C)CC3)c3ncnc(N)c23)cc1` [Example 161, 6-((1H-pyrrol-2-yl)ethynyl)-4-amino-N-(4-(methoxymethyl)phenyl)-7-(1-methylcyclopropyl)-7H-pyrrolo[2,3-d]pyrimidine-5-carboxamide], the “Remaining (%)” value was 68%.

For the compound `COCc1ccc(NC(=O)c2c(C#Cc3ccccc3)n(C3(C)CC3)c3ncnc(N)c23)cc1` [Example 162, 4-amino-N-(4-(methoxymethyl)phenyl)-7-(1-methylcyclopropyl)-6-(phenylethynyl)-7H-pyrrolo[2,3-d]pyrimidine-5-carboxamide], the “Remaining (%)” value stood at 76%.

Consider `COCc1ccc(NC(=O)c2c(C#Cc3ccc(OC)cc3)n(C3(C)CC3)c3ncnc(N)c23)cc1` [Example 165, 4-amino-N-(4-(methoxymethyl)phenyl)-6-((4-methoxypheny)ethynyl)-7-(1-methylcyclopropyl)-7H-pyrrolo[2,3-d]pyrimidine-5-carboxamide], for which the “Remaining (%)” value is reported as 90%.

On to `COCc1ccc(NC(=O)c2c(-c3cn[nH]c3)n(C3(C)CC3)c3ncnc(N)c23)cc1` [Example 167, 4-amino-N-(4-(methoxymethyl)phenyl)-7-(1-methylcyclopropyl)-6-(1H-pyrazol-4-yl)-7H-pyrrolo[2,3-d]pyrimidine-5-carboxamide], for which the “Remaining (%)” value stood at 80%.

`COCc1ccc(NC(=O)c2c(-c3ccc(N4CCN(C)CC4)cc3)n(C3(C)CC3)c3ncnc(N)c23)cc1` [Example 171, 4-amino-N-(4-(methoxymethyl)phenyl)-7-(1-methylcyclopropyl)-6-(4-(4-methylpiperazin-1-yl)phenyl)-7H-pyrrolo[2,3-d]pyrimidine-5-carboxamide]: the “Remaining (%)” value is listed as 77%.

On to `COCc1ccc(NC(=O)c2c(C#Cc3ccccn3)n(C3(C)CC3)c3ncnc(N)c23)cc1` [Example 172, 4-amino-N-[4-(methoxymethyl)phenyl]-7-(1-methylcyclopropyl)-6-(pyridin-2-ylethynyl)-7H-pyrrolo[2,3-d]pyrimidine-5-carboxamide], for which the “Remaining (%)” value is reported as 61%.

Regarding `COCc1ccc(NC(=O)c2c(C#CC(C)(C)O)n(C3(C)CC3)c3ncnc(N)c23)cc1` [Example 174, 4-amino-6-(3-hydroxy-3-methylbut-1-yn-1-yl)-N-(4-(methoxymethyl)phenyl)-7-(1-methylcyclopropyl)-7H-pyrrolo[2,3-d]pyrimidine-5-carboxamide], the “Remaining (%)” value worked out at 72%.

`COCc1ccc(NC(=O)c2c(C#Cc3cncc(F)c3)n(C3(C)CC3)c3ncnc(N)c23)cc1` [Example 175, 4-amino-6-((5-fluoropyridin-3-yl)ethynyl)-N-(4-(methoxymethyl)phenyl)-7-(1-methylcyclopropyl)-7H-pyrrolo[2,3-d]pyrimidine-5-carboxamide]: the “Remaining (%)” value is given as 66%.

Take `COCc1ccc(NC(=O)c2c(C#Cc3ccsc3)n(C3(C)CC3)c3ncnc(N)c23)cc1` [Example 176, 4-amino-N-(4-(methoxymethyl)phenyl)-7-(1-methylcyclopropyl)-6-(thiophen-3-ylethynyl)-7H-pyrrolo[2,3-d]pyrimidine-5-carboxamide]: the “Remaining (%)” value came out at 70%.

Turning to `COCc1ccc(NC(=O)c2c(C#CC3(O)CCOC3)n(C3(C)CC3)c3ncnc(N)c23)cc1` (stereo not shown) [Example 177, 4-amino-6-((3-hydroxytetrahydrofuran-3-yl)ethynyl)-N-(4-(methoxymethyl)phenyl)-7-(1-methylcyclopropyl)-7H-pyrrolo[2,3-d]pyrimidine-5-carboxamide], the “Remaining (%)” value is listed as 72%.

Take `COCc1ccc(NC(=O)c2c(C#CCN3CC[S+]([O-])CC3)n(C3(C)CC3)c3ncnc(N)c23)cc1` [Example 178, 4-amino-N-(4-(methoxymethyl)phenyl)-7-(1-methylcyclopropyl)-6-(3-(1-oxidethiomorpholino)prop-1-yn-1-yl)-7H-pyrrolo[2,3-d]pyrimidine-5-carboxamide]: the “Remaining (%)” value is recorded as 88%.

The record behind these values is patent US10807986B2, “Fused pyrimidine compound or salt thereof” (TAIHO PHARMACEUTICAL CO., LTD., priority 2016, dated 2020).
